Data from patent publication US5532267A, “Amidinonaphthyl furancarboxylate derivatives and acid addition salts therof” (Torii & Co., Ltd., priority 1992, dated 1996).
Where a name gives a salt, the structure may show the parent alone. Read-outs that look alike come from different tables or passages of the source.

What was measured:
trypsin = biological target: T1, trypsin (Bos taurus, UniProt P00760); experiment: anti-trypsin activity, hydrolysis of TAME (tosylarginine methyl ester); format: biochemical; settings: hydrolysis of TAME; read-out: Try: molar concentration inhibiting 50% of enzyme activity (IC50)
T1 sequence (P00760 24-246): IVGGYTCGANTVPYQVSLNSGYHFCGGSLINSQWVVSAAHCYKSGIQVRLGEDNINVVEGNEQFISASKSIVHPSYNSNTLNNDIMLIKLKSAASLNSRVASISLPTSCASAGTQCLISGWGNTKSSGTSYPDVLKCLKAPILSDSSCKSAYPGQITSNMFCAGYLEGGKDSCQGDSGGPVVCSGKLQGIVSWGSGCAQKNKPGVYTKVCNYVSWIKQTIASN

plasmin = plasmin (Homo sapiens, UniProt P00747); experiment: anti-plasmin activity, hydrolysis of TAME (tosylarginine methyl ester); format: biochemical; settings: hydrolysis of TAME; read-out: Pla: molar concentration inhibiting 50% of enzyme activity (IC50)
Protocol: (§1) The values in Table 1 represent molar concentrations (IC50) of test compounds which inhibit 50% of the activity of each enzyme to hydrolyze TAME (tosylarginine methyl ester). The anti-trypsin, anti-plasmin, anti-kallikrein and anti-thrombin activities were determined according to the method of Muramatsu et al. (J. Biochem. (1965), volume 58, page 214).

C1r = biological target: T2, C1r (Homo sapiens, UniProt P00736); experiment: anti-complement (anti-C1 esterase) activity, C1r hydrolysis of AAME (acetyl-arginine methyl ester); format: biochemical
T2 sequence (P00736 18-705): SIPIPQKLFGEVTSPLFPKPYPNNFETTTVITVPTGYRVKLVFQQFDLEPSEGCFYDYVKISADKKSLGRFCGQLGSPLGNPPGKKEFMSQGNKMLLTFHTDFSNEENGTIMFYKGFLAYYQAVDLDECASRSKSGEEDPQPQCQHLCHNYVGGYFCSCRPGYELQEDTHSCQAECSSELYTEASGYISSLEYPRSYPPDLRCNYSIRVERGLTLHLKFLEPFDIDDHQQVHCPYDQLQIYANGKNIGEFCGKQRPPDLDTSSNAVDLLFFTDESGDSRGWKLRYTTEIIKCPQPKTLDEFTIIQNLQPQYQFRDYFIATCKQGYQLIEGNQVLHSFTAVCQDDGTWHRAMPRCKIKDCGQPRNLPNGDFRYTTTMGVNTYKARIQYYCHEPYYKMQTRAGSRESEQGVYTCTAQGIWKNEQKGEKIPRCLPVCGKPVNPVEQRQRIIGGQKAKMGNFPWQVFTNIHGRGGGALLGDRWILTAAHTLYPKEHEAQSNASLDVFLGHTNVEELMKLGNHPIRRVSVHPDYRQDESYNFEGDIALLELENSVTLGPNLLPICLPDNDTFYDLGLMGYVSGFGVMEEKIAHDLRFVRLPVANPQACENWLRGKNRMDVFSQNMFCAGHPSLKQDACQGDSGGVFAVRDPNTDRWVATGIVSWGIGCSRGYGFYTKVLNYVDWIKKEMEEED

C1s = biological target: T3, C1s (Homo sapiens, UniProt P09871); experiment: anti-complement (anti-C1 esterase) activity, C1s hydrolysis of ATEE (acetyltyrosine ethyl ester); format: biochemical; settings: hydrolysis of ATEE; read-out: Cls: molar concentration inhibiting 50% of C1s activity (IC50)
T3 sequence (P09871 16-688): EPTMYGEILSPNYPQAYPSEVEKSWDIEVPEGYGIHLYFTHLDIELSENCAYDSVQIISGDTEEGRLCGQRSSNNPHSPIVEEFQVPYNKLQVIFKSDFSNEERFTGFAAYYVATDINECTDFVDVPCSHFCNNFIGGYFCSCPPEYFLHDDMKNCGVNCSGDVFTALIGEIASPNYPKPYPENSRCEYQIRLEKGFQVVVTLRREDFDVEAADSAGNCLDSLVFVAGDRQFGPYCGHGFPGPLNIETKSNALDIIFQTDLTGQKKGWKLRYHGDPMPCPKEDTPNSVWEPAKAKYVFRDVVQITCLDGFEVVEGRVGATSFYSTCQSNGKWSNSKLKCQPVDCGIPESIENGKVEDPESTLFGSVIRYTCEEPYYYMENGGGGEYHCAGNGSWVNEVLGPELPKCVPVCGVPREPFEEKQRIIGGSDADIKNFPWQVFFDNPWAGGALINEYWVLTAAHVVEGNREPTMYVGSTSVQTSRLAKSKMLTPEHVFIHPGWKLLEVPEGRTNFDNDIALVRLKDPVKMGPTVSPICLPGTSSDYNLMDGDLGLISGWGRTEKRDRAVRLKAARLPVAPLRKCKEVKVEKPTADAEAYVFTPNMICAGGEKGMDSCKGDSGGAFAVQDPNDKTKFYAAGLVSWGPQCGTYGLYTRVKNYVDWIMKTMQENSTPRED
Protocol: The anti-C1 esterase (C1r, C1s) activity was determined according to the method of Okamura et al. (Biochem. Biophys. Acta (1973), volume 295, pages 252-257). […] The values for C1s represent molar concentrations (IC50) of test compounds which inhibit 50% of the activity of C1s to hydrolyze ATEE (acetyltyrosine ethyl ester).

kallikrein = experiment: anti-kallikrein activity, hydrolysis of TAME (tosylarginine methyl ester); format: biochemical; settings: hydrolysis of TAME; read-out: Kal: molar concentration inhibiting 50% of enzyme activity (IC50)
Protocol: as §1

thrombin = thrombin (Homo sapiens, UniProt P00734); experiment: anti-thrombin activity, hydrolysis of TAME (tosylarginine methyl ester); format: biochemical; settings: hydrolysis of TAME; read-out: Thr: molar concentration inhibiting 50% of enzyme activity (IC50)
Protocol: as §1

Masugi's nephritis = experiment: Effectiveness in treating Masugi's nephritis (experimental glomerulonephritis), protein in urine; format: in vivo, rat
Protocol: […] […] As the index to effectiveness, the protein concentration in urine was determined. That is, when inflammation develops in the kidney, it causes damage to renal tubules, etc., and a resultant increase in protein concentration in urine.

adjuvant arthritis = experiment: Effectiveness in treating adjuvant arthritis (Mycobacterium butyricum); format: in vivo, rat; settings: 30 mg/kg, oral, day -1 to day 13
Protocol: Adjuvant arthritis is known as a representative model of autoimmune diseases and is a effective means of testing agents to treat human rheumatoid arthritis (Encyclopedia of Immunology, edited by I. M. Roitt, Academic Press, 1992; Otterness, I. G., et al., J. of Rheumatology (1991), volume 18, pages 505-511),
The method of experiment was as follows. A 0.6% Mycobacterium butyricum liquid paraffin suspension, 0.1 ml/animal, was administered to a rat at a subcutaneous site of left hind-limb sole to induce adjuvant arthritis. The present compound was orally administered (in the form of a suspension in water) consecutively from 1 day before the induction to 13 days after the induction. The efficacy of the present compound on adjuvant arthritis was evaluated by examining the swelling accompanied by red spots and subcutaneous knots at the fore-limb, hind-limb, tail, ear and periphery of eye with the lapse of days (on the 8th, 10th, 12th, 14th, 16th and 18th days after adjuvant administration), expressing the results in terms of scores according to the method of F. D. Wood et al. (Int. Arch. Allergy (1969), volume 35, pages 456-467), and calculating the percentage inhibition relative to the control group. Thus, the higher value of percentage inhibition indicates the higher effectiveness.

[1] = hydrolysis of AAME, read-out: Clr: molar concentration inhibiting 50% of C1r activity (IC50)
[2] = 30 mg/kg, oral, mean ± standard deviation, 7 animals, control group 40.8 ± 15.1
[3] = 100 mg/kg, oral, mean ± standard deviation, 7 animals, control group 40.8 ± 15.1

plasmin, sequence (P00747 581-810 limits assumed, species assumed): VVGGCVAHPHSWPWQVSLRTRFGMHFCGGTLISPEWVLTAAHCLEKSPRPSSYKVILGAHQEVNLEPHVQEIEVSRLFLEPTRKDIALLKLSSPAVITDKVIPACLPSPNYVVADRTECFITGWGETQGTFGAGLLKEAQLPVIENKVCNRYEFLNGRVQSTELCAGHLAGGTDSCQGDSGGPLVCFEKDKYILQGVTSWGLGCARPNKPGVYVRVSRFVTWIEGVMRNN
plasmin, sequence (P00747 97-580 partner limits assumed, species assumed): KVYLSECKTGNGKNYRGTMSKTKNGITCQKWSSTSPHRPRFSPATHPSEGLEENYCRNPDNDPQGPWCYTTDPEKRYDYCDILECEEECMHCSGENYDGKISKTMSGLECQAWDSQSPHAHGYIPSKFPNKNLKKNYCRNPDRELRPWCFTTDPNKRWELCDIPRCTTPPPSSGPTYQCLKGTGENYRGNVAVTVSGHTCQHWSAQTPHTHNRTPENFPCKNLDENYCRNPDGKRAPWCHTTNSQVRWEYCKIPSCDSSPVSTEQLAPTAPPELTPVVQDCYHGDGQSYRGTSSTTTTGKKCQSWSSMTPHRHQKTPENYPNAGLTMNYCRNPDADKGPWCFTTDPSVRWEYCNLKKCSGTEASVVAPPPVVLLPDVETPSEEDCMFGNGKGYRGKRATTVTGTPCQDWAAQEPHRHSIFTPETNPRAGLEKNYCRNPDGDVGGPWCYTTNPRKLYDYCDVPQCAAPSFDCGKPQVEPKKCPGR

Cl.N=C(N)c1ccc2cc(OC(=O)c3ccc(CNC(=O)Cc4ccc(C(=O)O)cc4)o3)ccc2c1 [Example 6, 6-Amidino-2-naphthyl 5-(4-carboxyphenylacetylaminomethyl)furan-2-carboxylate hydrochloride]
IC50 (trypsin): 0.39 µM
IC50 (plasmin): 0.26 µM
IC50 (C1r; [1]): 0.023 µM
IC50 (C1s): 0.27 µM
IC50 (kallikrein): 0.83 µM
IC50 (thrombin): 10 µM
Protein concentration in urine (Masugi's nephritis; [2]): 19.7 ± 11.1 mg/mL

Cl.N=C(N)c1ccc2cc(OC(=O)c3ccc(CNC(=O)[C@H]4CC[C@H](C(=O)O)CC4)o3)ccc2c1 [Example 11, 6-Amidino-2-naphthyl 5-(trans-4-carboxy-1-cyclohexanoylaminomethyl)furan-2-carboxylate hydrochloride]
IC50 (trypsin): 0.66 µM
IC50 (plasmin): 0.4 µM
IC50 (C1r): 1.2 µM
IC50 (C1s): 0.28 µM
IC50 (kallikrein): 0.87 µM
IC50 (thrombin): 1.2 µM
Protein concentration in urine (Masugi's nephritis; po, 30 mg/kg): 33.6 ± 17.8 mg/mL

Cl.N=C(N)c1ccc2cc(OC(=O)c3ccc(CNC(=O)/C=C/C(=O)O)o3)ccc2c1 [Example 13, 6-Amidino-2-naphthyl 5-(trans-2-carboxyvinyl)carbonylaminomethylfuran-2-carboxylate hydrochloride]
Protein concentration in urine (Masugi's nephritis; [2]): 24.2 ± 16.8 mg/mL

Cl.N=C(N)c1ccc2cc(OC(=O)c3ccc(CNC(=O)CCCCC(=O)O)o3)ccc2c1 [Example 23, 6-Amidino-2-naphthyl 5-(5-carboxyvalerylaminomethyl)furan-2-carboxylate hydrochloride]
Protein concentration in urine (Masugi's nephritis; [2]): 24.2 ± 18.8 mg/mL

Cl.N=C(N)c1ccc2cc(OC(=O)c3ccc(CNC(=O)CCCCCCCC(=O)O)o3)ccc2c1 [Example 26, 6-Amidino-2-naphthyl 5-(8-carboxyoctanoylaminomethyl)furan-2-carboxylate hydrochloride]
Protein concentration in urine (Masugi's nephritis; [2]): 25.0 ± 15.4 mg/mL

N=C(N)NC(CCC(=O)O)C(=O)NCc1ccc(C(=O)Oc2ccc3cc(C(=N)N)ccc3c2)o1 (centres unmarked) [Example 29, 6-Amidino-2-naphthyl 5-(4-carboxy-2-guanidinobutyrylaminomethyl)furan-2-carboxylate dihydrobromide]
IC50 (trypsin): 1.2 µM
IC50 (plasmin): 0.23 µM
IC50 (C1r; [1]): 0.44 µM
IC50 (C1s): 0.36 µM
IC50 (kallikrein): 0.24 µM
IC50 (thrombin): 1.6 µM

CN(C)C(=O)COC(=O)CCC(=O)NCc1ccc(C(=O)Oc2ccc3cc(C(=N)N)ccc3c2)o1 [Example 31, 6-Amidino-2-naphthyl 5-(3-N,N-dimethylcarbamoylmethoxycarbonylpropionylaminomethyl)furan-2-carboxylate hydrochloride]
IC50 (trypsin): 0.6 µM
IC50 (plasmin): 0.16 µM
IC50 (C1r; [1]): 0.29 µM
IC50 (C1s): 0.45 µM
IC50 (kallikrein): 0.17 µM
IC50 (thrombin): 0.15 µM
Percentage inhibition (arthritis score) (adjuvant arthritis): 67.7%

N=C(N)c1ccc2cc(OC(=O)c3ccc(CNC(=O)CCC(N)=O)o3)ccc2c1 [Example 32, 6-Amidino-2-naphthyl 5-(3-carbamoylpropionylaminomethyl)furan-2-carboxylatehydrochloride]
Protein concentration in urine (Masugi's nephritis; [2]): 22.8 ± 13.9 mg/mL

Cc1oc(=O)oc1COC(=O)CCC(=O)NCc1ccc(C(=O)Oc2ccc3cc(C(=N)N)ccc3c2)o1 [Example 33, 6-Amidino-2-naphthyl 5-{[3-(4-methyl-1,3-dioxole-2-one-5-yl)methoxycarbonyl]propionylaminomethyl}furan-2-carboxylate hydrochloride]
IC50 (trypsin): 6.6 µM
IC50 (plasmin): 0.084 µM
IC50 (C1r; [1]): 0.14 µM
IC50 (C1s): 0.22 µM
IC50 (kallikrein): 0.58 µM
IC50 (thrombin): 0.023 µM

COC(=O)CCC(=O)NCc1ccc(C(=O)Oc2ccc3cc(C(=N)N)ccc3c2)o1.Cl [Example 34, 6-Amidino-2-naphthyl 5-(3-methoxycarbonylpropionylaminomethyl)furan-2-carboxylate hydrochloride]
IC50 (trypsin): 0.27 µM
IC50 (plasmin): 0.13 µM
IC50 (C1r; [1]): 0.33 µM
IC50 (C1s): 0.17 µM
IC50 (kallikrein): 0.13 µM
IC50 (thrombin): 0.089 µM
Protein concentration in urine (Masugi's nephritis; [2]): 29.3 ± 18.8 mg/mL

Cl.N=C(N)c1ccc2cc(OC(=O)c3ccc(CNC(=O)CCC(=O)NCC(=O)O)o3)ccc2c1 [Example 36, 6-Amidino-2-naphthyl 5-(3-carboxymethylcarbamoylpropionylaminomethyl)furan-2-carboxylate hydrochloride]
Protein concentration in urine (Masugi's nephritis; [2]): 26.2 ± 14.7 mg/mL

CCC(C(=O)O)C(=O)NCc1ccc(C(=O)Oc2ccc3cc(C(=N)N)ccc3c2)o1.Cl (centres unmarked) [Example 38, 6-Amidino-2-naphthyl 5-(2-carboxybutyrylaminomethyl)furan-2-carboxylate hydrochloride]
Protein concentration in urine (Masugi's nephritis; [2]): 17.8 ± 12.4 mg/mL

CC(CC(=O)O)CC(=O)NCc1ccc(C(=O)Oc2ccc3cc(C(=N)N)ccc3c2)o1.Cl (centres unmarked) [Example 43, 6-Amidino-2-naphthyl 5-(4-carboxy-3-methylbutyrylaminomethyl)furan-2-carboxylate hydrochloride]
Protein concentration in urine (Masugi's nephritis; [2]): 21.8 ± 10.3 mg/mL

N=C(N)c1ccc2cc(OC(=O)c3ccc(CNC(=O)CC4(CC(=O)O)CCCC4)o3)ccc2c1 [Example 44, hydrochloride]
Protein concentration in urine (Masugi's nephritis; [2]): 20.0 ± 12.9 mg/mL

N=C(N)c1ccc2cc(OC(=O)c3ccc(CNC(=O)c4ccc(NC5=NCCN5)cc4)o3)ccc2c1 [Known compd. I, reference compound]
Protein concentration in urine (Masugi's nephritis; [3]): 24.4 ± 11.9 mg/mL

N=C(N)c1ccc2cc(OC(=O)c3ccc(CN)o3)ccc2c1 [Known compd. II, reference compound]
Protein concentration in urine (Masugi's nephritis; [3]): 22.1 ± 11.4 mg/mL
